Experimental data published in PubChem BioAssay (NCI).
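Each compound was tested at five concentrations against cells in 96-well plates for 48 hours. Definition used: TGI = concentration required for complete inhibition of growth.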

Tests used:
Test in all cases: growth of human tumour cells (NCI), 48 h
A549 NSCLC = system: A549 NSCLC
CAKI-1 renal = system: CAKI-1 renal
HCC-2998 colon = system: HCC-2998 colon
HCT-15 colon = system: HCT-15 colon
HOP-62 NSCLC = system: HOP-62 NSCLC
IGROV1 ovarian = system: IGROV1 ovarian
M14 melanoma = system: M14 melanoma
NCI-H226 lung = system: NCI-H226 lung
OVCAR-4 ovarian = system: OVCAR-4 ovarian
RPMI-8226 leukemia = system: RPMI-8226 leukemia
SF-268 CNS = system: SF-268 CNS
SF-295 CNS = system: SF-295 CNS
SR leukemia = system: SR leukemia
UACC-257 melanoma = system: UACC-257 melanoma
UACC-62 melanoma = system: UACC-62 melanoma
UO-31 renal = system: UO-31 renal
DU-145 prostate = system: DU-145 prostate
MDA-MB-435 = system: MDA-MB-435
MDA-N = system: MDA-N
OVCAR-3 ovarian = system: OVCAR-3 ovarian

SMILES	TGI (A549 NSCLC)	TGI (CAKI-1 renal)	TGI (HCC-2998 colon)	TGI (HCT-15 colon)	TGI (HOP-62 NSCLC)	TGI (IGROV1 ovarian)	TGI (M14 melanoma)	TGI (NCI-H226 lung)	TGI (OVCAR-4 ovarian)	TGI (RPMI-8226 leukemia)	TGI (SF-268 CNS)	TGI (SF-295 CNS)	TGI (SR leukemia)	TGI (UACC-257 melanoma)	TGI (UACC-62 melanoma)	TGI (UO-31 renal)	TGI (DU-145 prostate)	TGI (MDA-MB-435)	TGI (MDA-N)	TGI (OVCAR-3 ovarian)
O=C(Nc1ccc(Cl)cc1)C(=O)C(C(=O)c1ccccc1-c1ccccc1)C1OC(=O)c2ccccc21 (stereo not given)	50.7 µM	55.7 µM	33.8 µM	37.3 µM	> 100 µM	> 100 µM	42.4 µM	24 µM	> 100 µM	> 100 µM	64.1 µM	> 100 µM	82.9 µM	61.3 µM	29.5 µM	36.6 µM	–	–	–	–
Nc1nc(N)c2cc(Sc3ccc4nc(N)nc(N)c4c3)ccc2n1	> 100 µM	> 100 µM	> 100 µM	> 100 µM	> 100 µM	> 100 µM	> 100 µM	> 100 µM	> 100 µM	> 100 µM	> 100 µM	–	> 100 µM	> 100 µM	–	> 100 µM	> 100 µM	> 100 µM	> 100 µM	> 31.6 µM
COC(=O)C(Cc1cn(C(C)=O)c2ccccc12)P(=O)(OC)OC (stereo not given)	> 100 µM	> 100 µM	> 100 µM	> 100 µM	–	> 100 µM	> 100 µM	> 100 µM	> 100 µM	> 100 µM	> 100 µM	> 100 µM	> 100 µM	> 100 µM	> 100 µM	> 100 µM	> 100 µM	> 100 µM	> 100 µM	> 100 µM
C/C1=C/C(C)CC(C)OC(=O)C(C)NC(=O)C(Cc2ccc(O)c(I)c2)N(C)C(=O)CNC(=O)C(C)C1 (stereo not given)	> 100 µM	< 0.01 µM	13.2 µM	11.2 µM	< 0.01 µM	0.0236 µM	> 100 µM	–	–	0.757 µM	1.35 µM	1.73 µM	–	5.97 µM	> 20.9 µM	0.035 µM	> 100 µM	16.6 µM	> 100 µM	< 0.01 µM
